This note sets out measurements from paper PMC3471809 (Bioorganic & medicinal chemistry, 2012).

One test has as its system S. pneumoniae R6. Briefly: microbe, parasite or virus in culture. As to conditions: Streptococcus pneumoniae, R6, read-out: MIC.
Test [1] concerns the target T1, S. aureus PlsY (SaPlsY) (Staphylococcus aureus, UniProt P67164).
T1 sequence (P67164 1-202): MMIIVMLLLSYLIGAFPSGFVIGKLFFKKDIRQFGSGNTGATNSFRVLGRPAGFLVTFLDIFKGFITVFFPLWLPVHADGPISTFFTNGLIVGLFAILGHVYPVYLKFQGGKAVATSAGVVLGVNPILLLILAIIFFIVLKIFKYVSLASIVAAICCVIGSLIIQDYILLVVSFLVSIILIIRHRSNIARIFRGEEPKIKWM
As to the kind of experiment: biochemical. Format: E. coli FB23281 (delta plsY) membranes.

In test [2] the target is T1, S. aureus PlsY (SaPlsY). As to the kind of experiment: biochemical. Format: E. coli FB23281 (delta plsY) membranes. The source holds these as a separate data set.

pIC50: −log10 of the molar value. Converted amounts (≈) assume the structure as drawn. Like-named read-outs stand apart in the source and are kept apart here.

Consider `CCCCCCCCCCCCCCCC(=O)NS(=O)(=O)Oc1ccc2c(c1)OCO2` [compound 19, Benzo[d][1,3]dioxol-5-yl palmitoylsulfamate], for which, in the test on S. pneumoniae R6, the MIC amounted to 200 µg/mL (≈ 439 µM).
Compound `CCCCCCCCCCCCCCCC(=O)NS(=O)(=O)OC1CCNCC1` [compound 6] had a pIC50 against S. aureus PlsY (SaPlsY) [1] of less than 4.00.
Turning to `CCCCCCCCCCCCCCCC(=O)NS(=O)(=O)Oc1ccc2ncccc2c1` [compound 20, Quinolin-6-yl palmitoylsulfamate], the MIC in the test with S. pneumoniae R6 is greater than 200 µg/mL.
Same read-out and setting: as for `CCCCCCCCCCCCCCCC(=O)NS(=O)(=O)Oc1ccc(CC(=O)OC)cc1` [compound 14, Methyl 2-(4-(N-palmitoylsulfamoyloxy)phenyl)acetate], the figure is 100 µg/mL (≈ 207 µM).
Turning to `CCCCCCCCCCCCCCCC(=O)NS(=O)(=O)Oc1ccc2c(OS(N)(=O)=O)coc2c1` [compound 21], the MIC in the test with S. pneumoniae R6 was greater than 200 µg/mL.
Regarding `CCCCCCCCCCCCCCCC(=O)NS(=O)(=O)Oc1ccc(CCN)cc1` [compound 16], the pIC50 against S. aureus PlsY (SaPlsY) [2] was less than 4.00.
Take `CCCCCCCCCCCCCCCC(=O)NS(=O)(=O)Oc1ccc(C(=O)OCC)cc1` [compound 15, Ethyl 4-(N-palmitoylsulfamoyloxy)benzoate]: the MIC in the test on S. pneumoniae R6 came to 200 µg/mL (≈ 414 µM).
For the compound `CCCCCCCCCCCCCCCC(=O)NS(=O)(=O)Oc1ccc(-c2ccc([N+](=O)[O-])cc2)cc1` [compound 18, 4'-nitrobiphenyl-4-yl palmitoylsulfamate], in the test with S. pneumoniae R6, the MIC amounted to 100 µg/mL (≈ 188 µM).

As a reminder, the pIC50 is −log10 of the IC50, conventionally taken in molar units.
